Measured values from patent US20220362396A1, “AMINO-PYRAZINECARBOXAMIDE COMPOUNDS, CONJUGATES, AND USES THEREOF” (Silverback Therapeutics, Inc., priority 2018, published 2022).

Key:
[1] = test system: TGFβ/SMAD Signaling Pathway SBE reporter cell line; assay: TGFβ reporter assay, in vitro small molecule screening (luciferase); format: cell-based; conditions: TGFβ stimulation, luminescence
Procedure: TGFβ/SMAD Signaling Pathway SBE reporter cell line was obtained from BPS Bioscience. Cells were passed, expanded, and stored in liquid nitrogen as per the supplier's instructions with the exception that growth media is changed to DMEM-C with Geneticin (DMEM supplemented with 10% fetal bovine serum, 1×NEAA, 1 mM Pyruvate, 2 mM glutamine, 50 μg/mL penicillin, 50 U/mL streptomycin and 400 μg/mL of Geneticin). The assay media was MEM supplemented with 0.5% fetal bovine serum, 1×NEAA, 1 mM Pyruvate, 50 μg/mL penicillin and 50 U/mL streptomycin.
Test samples (at desired concentrations diluted in assay media) were added to a 96-well assay plate, 20 μL per well. Reporter cells were harvested from the tissue culture flasks by incubation in small quantity of PBS at 37° C. for two minutes after the media in the flask is removed and cells rinsed with PBS. Cells were counted and diluted in the assay media at approximately 0.5×10^6 cells/mL and then 80 μL/well of cells were added to the assay plate containing the 20 μL/well of test samples (or media only), and incubated for approximately 5-6 hours at 37° C. in a 5% CO2 humidified incubator. After that time, 15 μL of TGFβ diluted to 12 ng/mL in the assay media was added to the plate. Controls included TGFβ titration (from 50 to 0 ng/mL) without inhibitors, and media only (without cells, inhibitor or TGFβ). Plates were incubated at 37° C. in a 5% CO2 humidified incubator for 18 h. Luciferase substrate solution is subsequently added at 100 μL per well, incubated in the dark at room temperature for 15 min, and luminescence is measured using a luminometer. EC50 values and curve fits were obtained using Prism (GraphPad Software).

TGFBR2 = target: T1, TGFBR2 (Homo sapiens, UniProt P37173); assay: TGFBR2 RBC assay (enzyme inhibition assay, Reaction Biology Corp.); format: biochemical
T1 construct: purchased Reaction Biology Corp
T1 sequence (P37173 23-567): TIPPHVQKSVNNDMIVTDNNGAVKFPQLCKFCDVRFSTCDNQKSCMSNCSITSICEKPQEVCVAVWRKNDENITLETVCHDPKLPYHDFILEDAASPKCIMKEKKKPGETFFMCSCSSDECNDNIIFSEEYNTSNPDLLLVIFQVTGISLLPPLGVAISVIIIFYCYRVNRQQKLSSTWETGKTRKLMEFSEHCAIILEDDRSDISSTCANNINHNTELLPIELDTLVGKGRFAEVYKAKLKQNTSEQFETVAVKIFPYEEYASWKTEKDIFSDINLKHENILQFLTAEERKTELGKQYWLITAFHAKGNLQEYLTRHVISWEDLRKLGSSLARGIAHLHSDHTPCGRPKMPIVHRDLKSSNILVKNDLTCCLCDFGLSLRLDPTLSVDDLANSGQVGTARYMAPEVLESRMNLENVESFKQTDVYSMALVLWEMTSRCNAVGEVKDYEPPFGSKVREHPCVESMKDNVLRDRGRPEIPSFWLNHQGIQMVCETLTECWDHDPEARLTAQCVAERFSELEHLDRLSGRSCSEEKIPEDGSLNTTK
Procedure: Compounds of the disclosure were also assayed by Reaction Biology Corp. using the TGFBR2 RBC assay (enzyme inhibition assay). […] NT refers to not tested.

EC50 [1] | IC50 (TGFBR2) | SMILES
100 to 1000 nM | < 50 nM | Nc1ncc(-c2ccc(CCNC(=O)OCc3ccccc3)cc2)nc1C(=O)Nc1cnccc1N1CCOCC1 [Compound 1.1, Benzyl (4-(5-amino-6-((4-morpholinopyridin-3-yl)carbamoyl)pyrazin-2-yl)phenethyl)carbamate]
100 to 1000 nM | < 50 nM | Nc1ncc(-c2ccc(CCCNC(=O)OCc3ccccc3)cc2)nc1C(=O)Nc1cnccc1N1CCOCC1 [Compound 1.2]
50 to 100 nM | < 50 nM | NCCCc1ccc(-c2cnc(N)c(C(=O)Nc3cnccc3N3CCOCC3)n2)cc1 [Compound 2.1, 3-Amino-6-(4-(3-aminopropyl)phenyl)-N-(4-morpholinopyridin-3-yl)pyrazine-2-carboxamide]
100 to 1000 nM | < 50 nM | Cc1nccn1-c1ccncc1NC(=O)c1nc(-c2ccc(CCNC(=O)OCc3ccccc3)cc2)cnc1N [Compound 3.1, Benzyl (4-(5-amino-6-((4-(2-methyl-1H-imidazol-1-yl)pyridin-3-yl)carbamoyl)pyrazin-2-yl)phenethyl)carbamate]
100 to 1000 nM | < 50 nM | Cc1nccn1-c1ccncc1NC(=O)c1nc(-c2ccc(CCN)cc2)cnc1N [Compound 4.1, 3-Amino-6-(4-(2-aminoethyl)phenyl)-N-(4-(2-methyl-1H-imidazol-1-yl)pyridin-3-yl)pyrazine-2-carboxamide]
100 to 1000 nM | < 50 nM | Nc1ncc(-c2ccc(CCNC(=O)OCc3ccccc3)cc2)nc1C(=O)Nc1cnccc1-c1ccncc1 [Compound 5.1, Benzyl (4-(6-([4,4′-bipyridin]-3-ylcarbamoyl)-5-aminopyrazin-2-yl)phenethyl)carbamate]
50 to 100 nM | < 50 nM | NCCc1ccc(-c2cnc(N)c(C(=O)Nc3cnccc3N3CCOCC3)n2)cc1 [Compound 6]
50 to 100 nM | < 50 nM | NCc1ccc(-c2cnc(N)c(C(=O)Nc3cnccc3N3CCOCC3)n2)cc1 [Compound 7]
100 to 1000 nM |  | NCCc1ccc(-c2cnc(N)c(C(=O)Nc3cnccc3N3CCOCC3CO)n2)cc1 (stereo not shown) [Compound 8]
100 to 1000 nM |  | N#Cc1cnccc1-c1ccncc1NC(=O)c1nc(-c2ccc(CCNC(=O)OCc3ccccc3)cc2)cnc1N [Compound 9]
> 1000 nM |  | N#Cc1cnccc1-c1ccncc1NC(=O)c1nc(-c2ccc(CCNC(=O)OCc3ccccc3)cc2)cnc1N [Compound 10]
> 1000 nM |  | Nc1ncc(-c2ccc(CCNC(=O)[C@H](CCC(=O)O)NC(=O)OCc3ccccc3)cc2)nc1C(=O)Nc1cnccc1N1CCOCC1 [Compound 11]
100 to 1000 nM |  | CC(C)(C)OC(=O)N[C@@H](CCCCN)C(=O)NCCc1ccc(-c2cnc(N)c(C(=O)Nc3cnccc3N3CCOCC3)n2)cc1 [Compound 12]
> 1000 nM |  | N#Cc1ncccc1-c1ccncc1NC(=O)c1nc(-c2ccc(CCNC(=O)OCc3ccccc3)cc2)cnc1N [Compound 13]
> 1000 nM | > 1000 nM | COc1ccc(-c2ccncc2NC(=O)c2nc(-c3ccc(CCNC(=O)OCc4ccccc4)cc3)cnc2N)cc1 [Compound 14]
100 to 1000 nM | 100 to 1000 nM | N#Cc1ccc(-c2ccncc2NC(=O)c2nc(-c3ccc(CCNC(=O)OCc4ccccc4)cc3)cnc2N)cc1 [Compound 15]
 | < 50 nM | Nc1ncc(-c2ccc(OCCNC(=O)OCc3ccccc3)cc2)nc1C(=O)Nc1cnccc1N1CCOCC1 [Compound 45]
100 to 1000 nM |  | CC(=O)c1ccc(C(=O)NCCc2ccc(-c3cnc(N)c(C(=O)Nc4cnccc4N4CCOCC4)n3)cc2)cc1 [Compound 58]
100 to 1000 nM |  | Cc1cc(CNC(=O)OCc2ccccc2)ccc1-c1cnc(N)c(C(=O)Nc2cnccc2N2CCOCC2)n1 [Compound 60]
> 1000 nM |  | COCCNc1ccncc1NC(=O)c1nc(-c2ccc(CCNC(=O)OCc3ccccc3)cc2)cnc1N [Compound 99]
> 1000 nM |  | COCCNc1ccncc1NC(=O)c1nc(-c2ccc(CCN)cc2)cnc1N [Compound 100]
 | 100 to 1000 nM | NCCc1ccc(-c2cnc(N)c(C(=O)Nc3cnccc3-n3ccnc3-c3ccccc3)n2)cc1 [Compound 145]

EC50 [1] | IC50 (TGFBR2) | SMILES
 | 100 to 1000 nM | Nc1ncc(-c2ccc(CCNC(=O)OCc3ccccc3)cc2)nc1C(=O)Nc1cnccc1-n1ccnc1-c1ccccc1 [Compound 146]
 | 50 to 100 nM | NCCc1ccc(-c2cnc(N)c(C(=O)Nc3cncc(-c4ccccc4[N+](=O)[O-])c3)n2)cc1 [Compound 147]
> 1000 nM |  | Nc1ncc(-c2ccc([C@@H]3CNC[C@H]3C(=O)O)cc2)nc1C(=O)Nc1cnccc1N1CCOCC1 [Compound 231]
100 to 1000 nM |  | Nc1ncc(-c2ccc(N[C@@H]3CCNC3)cc2)nc1C(=O)Nc1cnccc1N1CCOCC1 [Compound 281]
100 to 1000 nM |  | CC(C)(C)OC(=O)N1CC[C@@H](Nc2ccc(-c3cnc(N)c(C(=O)Nc4cnccc4N4CCOCC4)n3)cc2)C1 [Compound 282]
100 to 1000 nM |  | Nc1ncc(-c2ccc(N3CCC[C@@H](N)C3)cc2)nc1C(=O)Nc1cnccc1N1CCOCC1 [Compound 283]
100 to 1000 nM |  | CC(C)(C)OC(=O)N[C@@H]1CCCN(c2ccc(-c3cnc(N)c(C(=O)Nc4cnccc4N4CCOCC4)n3)cc2)C1 [Compound 284]
50 to 100 nM |  | Nc1ncc(-c2ccc(N3CCC[C@H](N)C3)cc2)nc1C(=O)Nc1cnccc1N1CCOCC1 [Compound 285]
100 to 1000 nM |  | CC(C)(C)OC(=O)N[C@H]1CCCN(c2ccc(-c3cnc(N)c(C(=O)Nc4cnccc4N4CCOCC4)n3)cc2)C1 [Compound 286]
100 to 1000 nM |  | CC(S)CCC(=O)NCC(C)Oc1ccc(-c2cnc(N)c(C(=O)Nc3cnccc3N3CCOCC3)n2)cc1 (stereo not shown) [Compound 287]
100 to 1000 nM |  | CC(CNC(=O)CCC(C)(C)S)Oc1ccc(-c2cnc(N)c(C(=O)Nc3cnccc3N3CCOCC3)n2)cc1 (stereo not shown) [Compound 288]
50 to 100 nM |  | Nc1ncc(-c2ccc(N3CCN(CCO)CC3)cc2)nc1C(=O)Nc1cnccc1N1CCOCC1 [Compound 289]
< 50 nM |  | CN(C)C1CCN(c2ccc(-c3cnc(N)c(C(=O)Nc4cnccc4N4CCOCC4)n3)cc2)CC1 [Compound 290]
100 to 1000 nM |  | CN(c1ccc(-c2cnc(N)c(C(=O)Nc3cnccc3N3CCOCC3)n2)cc1)C1CCN(C(=O)OC(C)(C)C)CC1 [Compound 291]
100 to 1000 nM |  | NCCN(CCO)c1ccc(-c2cnc(N)c(C(=O)Nc3cnccc3N3CCOCC3)n2)cc1 [Compound 292]
100 to 1000 nM |  | Nc1ncc(-c2ccc(N(CCO)CCNC(=O)OCc3ccccc3)cc2)nc1C(=O)Nc1cnccc1N1CCOCC1 [Compound 293]
100 to 1000 nM |  | COC(=O)[C@@H](C)N(C)c1ccc(-c2cnc(N)c(C(=O)Nc3cnccc3N3CCOCC3)n2)cc1 [Compound 294]
100 to 1000 nM |  | C[C@H](C(=O)O)N(C)c1ccc(-c2cnc(N)c(C(=O)Nc3cnccc3N3CCOCC3)n2)cc1 [Compound 295]
< 50 nM |  | C[C@H](CO)N(C)c1ccc(-c2cnc(N)c(C(=O)Nc3cnccc3N3CCOCC3)n2)cc1 [Compound 296]
100 to 1000 nM |  | COC(=O)[C@H](C)N(C)c1ccc(-c2cnc(N)c(C(=O)Nc3cnccc3N3CCOCC3)n2)cc1 [Compound 297]
100 to 1000 nM |  | C[C@@H](C(=O)O)N(C)c1ccc(-c2cnc(N)c(C(=O)Nc3cnccc3N3CCOCC3)n2)cc1 [Compound 298]
100 to 1000 nM |  | CN(c1ccc(-c2cnc(N)c(C(=O)Nc3cnccc3N3CCOCC3)n2)cc1)[C@@H]1CCN(C(=O)OC(C)(C)C)C1 [Compound 300]

SMILES | EC50 [1] | IC50 (TGFBR2)
CN(c1ccc(-c2cnc(N)c(C(=O)Nc3cnccc3N3CCOCC3)n2)cc1)C1CCNCC1 [Compound 301] | 50 to 100 nM | 
